The text below walks through data of patent US6455520B1, “Benzamide derivatives and their use as cytokine inhibitors” (Astra Zeneca AB, priority 1998, dated 2002).

One data set addresses T1, p38α (Homo sapiens, UniProt Q16539).
T1 construct: c-myc (N); 6His (N); made in house; host or cells: E. coli (PET vectors)
The data set is described as follows: In vitro enzyme assay, p38α. Type of data set: biochemical. As to conditions: read-out: IC50 against p38α. Here is the method:
The ability of compounds of the invention to inhibit the enzyme p38 kinase was assessed. Activity of test compounds against each of the p38α and p38β isoforms of the enzyme was determined.
Human recombinant MKK6 (GenBank Accesion Number G1209672) was isolated from Image clone 45578 (Genomics, 1996, 33, 151) and utilised to produce protein in the form of a GST fusion protein in a pGEX vector using analogous procedures to those disclosed by J. Han et al., Journal of Biological Chemistry, 1996, 271, 2886-2891. p38α (GenBank Accession Number G529039) and p38β (GenBank Accession Number G1469305) were isolated by PCR amplification of human lymphoblastoid cDNA (GenBank Accession Number GM1416) and human foetal brain cDNA [synthesised from mRNA (Clontech, catalogue no. 6525-1) using a Gibco superscript cDNA synthesis kit] respectively using oligonucleotides designed for the 5′ and 3′ ends of the human p38α and p38β genes using analogous procedures to those described by J. Han et al., Biochimica et Biophysica Acta, 1995, 1265, 224-227 and Y. Jiang et al., Journal of Biological Chemistry, 1996, 271, 17920-17926.
Both p38 protein isoforms were expressed in e coli in PET vectors. Human recombinant p38α and p38β isoforms were produced as 5′ c-myc, 6His tagged proteins. Both MKK6 and the p38 proteins were purified using standard protocols: the GST MKK6 was purified using a glutathione sepharose column and the p38 proteins were purified using nickel chelate columns.
The p38 enzymes were activated prior to use by incubation with MKK6 for 3 hours at 30° C. The unactivated coli-expressed MKK6 retained sufficient activity to fully activate both isoforms of p38. The activation incubate comprised p38α (10 μl of 10 mg/ml) or p38β (10 μl of 5 mg/ml) together with MKK6 (10 μl of 1 mg/ml), ‘Kinase buffer’ [100 μl; pH 7.4 buffer comprising Tris (50 mM), EGTA (0.1 mM), sodium orthovanadate (0.1 mM) and β-mercaptoethanol (0.1%)] and MgATP (30 μl of 50 mM Mg(OCOCH3)2 and 0.5 mM ATP). This produced enough activated p38 enzyme for 3 Microtiter plates.
Test compounds were solubilised in DMSO and 10 μl of a 1:10 diluted sample in ‘Kinase Buffer’ was added to a well in a Microtiter plate. For single dose testing, the compounds were tested at 10 μM. ‘Kinase Assay Mix’ [30 μl; comprising Myelin Basic Protein (Gibco BRL cat. no. 1322B-010; 1 ml of a 3.33 mg/ml solution in water), activated p38 enzyme (50 μl ) and ‘Kinase Buffer’ (2 ml)] was then added followed by ‘Labelled ATP’ [10 μl; comprising 50 μM ATP, 0.1 μCi ^33P ATP (Amersham International cat. no. BF1000) and 50 mM Mg(OCOCH3)2]. The plates were incubated at room temperature with gentle agitation. Plates containing p38α were incubated for 90 min and plates containing p38β P were incubated for 45 min. Incubation was stopped by the addition of 50 μl of 20% trichloroacetic acid (TCA). The precipitated protein was phosphorylated by p38 kinase and test compounds were assessed for their ability to inhibit this phosphorylation. The plates were filtered using a Canberra Packard Unifilter and washed with 2% TCA, dried overnight and counted on a Top Count scintillation counter.
Test compounds were tested initially at a single dose and active compounds were retested to allow IC50 values to be determined.

Data set [1] has as its system TNFα production in human whole blood. Briefly: Human Whole Blood test: inhibition of LPS-stimulated TNFα production. Type of data set: cell-based. As to the method:
The ability of the compounds of this invention to inhibit TNFα production was also assessed in a human whole blood assay. Human whole blood secretes TNFα when stimulated with LPS. This property of blood forms the basis of an assay which is used as a secondary test for compounds which profile as active in the PBMC test.
Heparinised (10 units/ml) human blood was obtained from volunteers. 160 μl whole blood were added to 96 well round-bottom plates (Corning 25850). Compounds were solubilised and serially diluted in RPMI 1640 medium (Gibco) supplemented with 50 units/ml penicillin, 50 μg/ml streptomycin and 2 mM glutamine, as detailed above. 20 μl of each test concentration was added to appropriate wells (triplicate cultures). 20 μl of RPMI 1640 medium supplemented with antibiotics and glutamine was added to control wells. Plates were incubated for 30 minutes at 37° C. (humidified incubator), prior to addition of 20 μl LPS (final concentration 10 μg/ml). RPMI 1640 medium was added to control wells. Six “LPS alone” and four “medium alone” controls were included on each plate. A known TNFα synthesis/secretion inhibitor was included in each test. Plates were incubated for 6 hours at 37° C. (humidified incubator). […] TNFα levels were measured by ELISA (see WO92/10190 and Current Protocols in Molecular Biology, vol 2 by Frederick M. Ausbel et al., John Wiley and Sons Inc.). […]

Data set [2] deals with TNFα production by human peripheral blood mononuclear cells. The data set is described as follows: PBMC test: inhibition of LPS-stimulated TNFα production. Type of data set: cell-based. Here is the method: The ability of compounds of this invention to inhibit TNFα production was assessed by using human peripheral blood mononuclear cells which synthesise and secrete TNFα when stimulated with lipopolysaccharide.
Peripheral blood mononuclear cells (PBMC) were isolated from heparinised (10 units/ml heparin) human blood by density centrifugation (Lymphoprep™; Nycomed). Mononuclear cells were resuspended in culture medium [RPMI 1640 medium (Gibco) supplemented with 50 units/ml penicillin, 50 μg/ml streptomycin, 2 mM glutamine and 1% heat-inactivated human AB serum (Sigma H-1513)]. Compounds were solubilised in DMSO at a concentration of 50 mM, diluted 1:100 in culture medium and subsequently serial dilutions were made in culture medium containing 1% DMSO. PBMCs (2.4×10^5 cells in 160 μl culture medium) were incubated with 20 μl of varying concentrations of test compound (triplicate cultures) or 20 μl culture medium containing 1% DMSO (control wells) for 30 minutes at 37° C. in a humidified (5%CO2/95% air) incubator (Falcon 3072; 96 well flat-bottom tissue culture plates). 20 μl lipopolysaccharide [LPS E.Coli 0111:B4 (Sigma L-4130), final concentration 10 μg/ml] solubilised in culture medium was added to appropriate wells. 20 μl culture medium was added to “medium alone” control wells. Six “LPS alone” and four “medium alone” controls were included on each 96 well plate. Varying concentrations of a known TNFα inhibitor were included in each test, i.e. an inhibitor of the PDE Type IV enzyme (for example see Semmler, J. Wachtel. H and Endres, S., Int. J. Immunopharmac. (1993), 15(3), 409-413) or an inhibitor of pro TNFα convertase (for example, see McGeehan, G. M. et al. Nature (1994) 370, 558-561). Plates were incubated for 7 hours at 37° C. (humidified incubator) after which 100 μl of the supernatant was removed from each well and stored at −70° C. (96 well round-bottom plates; Corning 25850). TNFα levels were determined in each sample using a human TNFα ELISA (see WO92/10190 and Current Protocols in Molecular Biology, vol 2 by Frederick M. Ausbel et al., John Wiley and Sons Inc.).
% inhibition=(LPS alone−medium alone)−(test concentration−medium alone)/(LPS alone−medium alone)×100

T1 sequence (Q16539 whole entry): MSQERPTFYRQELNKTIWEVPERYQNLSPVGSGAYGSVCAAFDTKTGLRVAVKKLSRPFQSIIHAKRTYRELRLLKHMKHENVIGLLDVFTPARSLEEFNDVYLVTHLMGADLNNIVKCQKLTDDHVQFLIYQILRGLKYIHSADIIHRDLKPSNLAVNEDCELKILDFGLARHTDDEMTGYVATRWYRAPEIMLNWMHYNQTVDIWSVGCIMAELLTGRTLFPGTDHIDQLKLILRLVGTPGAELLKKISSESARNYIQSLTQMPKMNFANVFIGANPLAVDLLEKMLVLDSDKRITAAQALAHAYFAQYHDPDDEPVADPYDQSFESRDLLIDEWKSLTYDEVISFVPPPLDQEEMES

The term melting point denotes the temperature of the solid-liquid transition. `Cc1ccc(NC(=O)c2ccc3ncccc3c2)cc1NC(=O)c1cccc(OCCN2CCOCC2)c1` [Example 13, N-{3-[3-(2-morpholinoethoxy)benzamido]-4-methylphenyl}quinoline-6-carboxamide]: the melting point is 216 to 217 °C.
For orientation: IC50 means the concentration needed to halve the response being measured. Consider `CCN(CC)Cc1ccc(C(=O)Nc2cc(NC(=O)c3ccnc(N4CCOCC4)c3)ccc2C)cc1` [N-[3-(4-diethylaminomethylbenzamido)-4-methylphenyl]-2-morpholinopyridine-4-carboxamide], for which the IC50 at p38α was roughly 200 nM; in data set [1] it was roughly 10000 nM; in data set [2], less than 500 nM.
Turning to `Cc1ccc(NC(=O)c2ccnc(N3CCOCC3)c2)cc1NC(=O)c1cccc(CN2CCN(C)CC2)c1` [N-{3-[3-(4-methylpiperazin-1-ylmethyl)benzamido]-4-methylphenyl}-2-morpholinopyridine-4-carboxamide], the results for the IC50 (on p38α; in data set [1]; in data set [2]) were roughly 100 nM, roughly 7000 nM and less than 500 nM, respectively.
Regarding `Cc1ccc(NC(=O)c2ccnc(N3CCCC3)c2)cc1NC(=O)c1cccc(CN2CCN(C)CC2)c1` [N-{3-[3-(4-methylpiperazin-1-ylmethyl)benzamido]-4-methylphenyl}-2-pyrrolidin-1-ylpyridine-4-carboxamide], the IC50 at p38α was roughly 100 nM; in data set [2] it was less than 500 nM.
In the same order, the values of `Cc1ccc(NC(=O)c2ccco2)cc1NC(=O)c1cccc(CN2CCN(C)CC2)c1` [N-{4-methyl-3-[3-(4-methylpiperazin-1-ylmethyl)benzamido]phenyl}furan-2-carboxamide] are roughly 1000 nM and roughly 4000 nM.
For `Cc1ccc(NC(=O)c2ccno2)cc1NC(=O)c1cccc(CN2CCN(C)CC2)c1` [N-{4-methyl-3-[3-(4-methylpiperazin-1-ylmethyl)benzamido]phenyl}isoxazole-5-carboxamide], the results for the half-maximal inhibitory concentration (IC50) (on p38α; in data set [2]) were roughly 800 nM and roughly 1000 nM, respectively.
